This note sets out measurements from patent publication US20100016335A1, “NOVEL AMINOPYRIDINE DERIVATIVES HAVING AURORA A SELECTIVE INHIBITORY ACTION” (priority 2006, published 2010).

One experiment has as its target T1, human Aurora A (Homo sapiens, UniProt O14965).
T1 construct: His (N); made in house; host or cells: Escherichia coli BL21-CodonPlus(DE3)-RIL
T1 sequence (O14965 1-403): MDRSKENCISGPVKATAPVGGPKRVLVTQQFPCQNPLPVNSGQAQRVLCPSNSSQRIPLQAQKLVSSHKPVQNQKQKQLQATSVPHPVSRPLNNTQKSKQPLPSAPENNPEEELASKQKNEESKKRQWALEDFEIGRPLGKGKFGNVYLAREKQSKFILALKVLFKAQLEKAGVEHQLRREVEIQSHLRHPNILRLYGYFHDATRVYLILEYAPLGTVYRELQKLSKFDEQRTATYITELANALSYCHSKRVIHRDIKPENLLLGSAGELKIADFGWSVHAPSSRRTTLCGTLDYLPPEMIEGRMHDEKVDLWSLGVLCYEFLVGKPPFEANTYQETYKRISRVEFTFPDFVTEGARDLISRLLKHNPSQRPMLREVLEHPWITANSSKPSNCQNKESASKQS
Briefly: Aurora A inhibitory activity (IMAP fluorescence polarization phosphorylation assay). Format: biochemical. As to conditions: 20 μM ATP, 30° C., 120 minutes. From the text:
cDNA of N-terminal His-tagged human Aurora A was integrated into an expression vector, which was then highly expressed in Escherichia coli BL21-CodonPlus(DE3)-RIL cells. The Escherichia coli was harvested and lysed, and then the His-tagged human Aurora A protein was applied onto a nickel chelate column and eluted from the column with imidazole. The active fractions were desalted with a desalting column to give a purified enzyme.
For the phosphorylation reaction, the method by Upstate, Inc. [Kinase Profiler™ Assay Protocols] was referred to, and phosphorylation of the substrate was detected using IMAP® technology (Molecular Devices, Co. Ltd.) (Gaudet E W. et. al, J. Biomol. Screen, 8, 164-175 (2003)). Concretely, the phosphorylation reaction and the detection were carried out as follows:
The phosphorylation reaction was conducted using 384 well plate, and the reaction volume was 10 μl/well. The reaction buffer is comprised of 50 mM Tris-chloride buffer (pH 7.4), 15 mM magnesium acetate, and 0.2 mM ethylenediamine-N,N,N′,N′-tetraacetic acid (EDTA). Thereto, the purified Aurora A protein, 100 nM of the peptide substrate, and 20 μM of adenosine 5′-triphosphate (ATP) were added, and then the reaction was carried out at 30° C. for 120 minutes.
Thereafter, in order to terminate and detect the reaction, 30 μl of the IMAP (registered trademark) binding reagent (IMAP Progressive Binding Reagent, R7284) that had been diluted (1:400) in the 1×IMAP binding buffer A (IMAP Progressive Binding Buffer A, 5× stock, R7282) was added to each well. The solution stood still for 60 minutes in the dark, and then fluorescence polarization was measured using a high-end microplate reader (excitation wavelength: 485 nm; emission wavelength: 520 nm).
The compound to be tested was added to the reaction system such that a dilution series of the compound in dimethylsulfoxide (DMSO) was prepared, and then 0.5 μL of this solution was added for the testing to each well. Each control well was provided by adding 0.5 μL of DMSO to the well in place of the DMSO solution containing the compound to be tested.
(Fluorescence polarisation rises when a labelled molecule tumbles more slowly, as on binding a larger partner.)

The target of experiment [1] is T2, GST-tagged human Aurora B(AurB)/His-tagged human INCENP complex proteins (Homo sapiens, UniProt Q96GD4).
T2 construct: GST; purchased Carna Biosciences, Inc
T2 sequence (Q96GD4 whole entry): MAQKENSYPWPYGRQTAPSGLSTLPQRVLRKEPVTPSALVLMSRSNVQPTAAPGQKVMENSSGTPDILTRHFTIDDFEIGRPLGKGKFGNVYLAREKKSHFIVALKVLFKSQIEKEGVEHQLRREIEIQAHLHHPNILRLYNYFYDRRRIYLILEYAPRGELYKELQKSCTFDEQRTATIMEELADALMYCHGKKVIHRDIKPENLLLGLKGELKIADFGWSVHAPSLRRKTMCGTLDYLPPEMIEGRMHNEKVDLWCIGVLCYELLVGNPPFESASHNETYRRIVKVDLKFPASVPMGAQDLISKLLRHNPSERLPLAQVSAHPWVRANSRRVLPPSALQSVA
T2 sequence (Q9NQS7 803-916 partner limits assumed): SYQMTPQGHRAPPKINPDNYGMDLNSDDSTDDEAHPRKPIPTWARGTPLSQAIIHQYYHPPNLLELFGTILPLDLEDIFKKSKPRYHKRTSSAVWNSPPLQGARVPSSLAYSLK
Briefly: Aurora B inhibitory activity (Method A, IMAP assay kit). The class given is biochemical. As to conditions: 40 μM ATP, 25° C., 45 minutes. The method, then: An assay development kit for IMAP (registered trademark) (Aurora B), purchased from Carna Biosciences, Inc., was used for phosphorylation reaction, and the phosphorylation of a substrate was detected using the IMAP technology. […] Using the same, the phosphorylation reaction was conducted in accordance with a partially revised protocol attached to the kit, and then the phosphorylation of the substrate was detected using the IMAP technology.
For the phosphorylation reaction, 384 well plate was used, and the reaction volume was 10 μl/well. The composition of the reaction buffer (assay buffer) is comprised of 20 mM of HEPES buffer (pH 7.4), 0.01% Tween-20, and 2 mM of dithiothreitol (DTT). Thereto, AurB/INCENP complex protein, 100 nM of the substrate, and 40 μM of ATP, and 1 mM of magnesium salt were added, and then the reaction was conducted at 25° C. for 45 minutes. Thereafter, in order to terminate and detect the reaction, 30 μl of the IMAP (registered trademark) binding reagent (IMAP Progressive Binding Reagent, R7284) that had been diluted (1:400) in the 1× IMAP binding buffer A (IMAP Progressive Binding Buffer A, 5× stock, R7282) was added to each well.
The compound to be tested was added to the reaction system such that a dilution series of the compound in DMSO was prepared, and then 0.5 μL of this solution was added for the testing to each well. Each control well was provided by adding 0.5 μL of DMSO to the well in place of the DMSO solution containing the compound to be tested.

Experiment [2] concerns Human cervical cancer cells (HeLa S3). Briefly: Cell growth inhibitory effect, WST-8 method. The class given is cell-based. As to conditions: Homo sapiens, 72 h; HeLa S3, three days incubation; read-out: Cell growth inhibitory effect (HeLaS3) (IC50). The method, then:
Fetal calf serum (FCS) was purchased from Moregate Biotech, and DMEM medium was purchased from Invitrogen Corp. WST-8 was purchased from Kishida Chemical Co., Ltd.
(§1) Human cervical cancer cells (HeLa S3) were obtained from the American Type Culture Collection (ATCC).
Cells were suspended in a DMEM medium containing 10% FCS, and the cell suspension was dispensed to a 96-well plastic plate at a rate of 750 cells/100 microliters per well. The plate was incubated overnight in 5% CO2-95% air at 37° C. A drug was subjected to graded dilution in dimethylsulfoxide and further diluted with a DMEM medium containing 10% FCS. Then, the dilution was dispensed to the plate on which cells had been disseminated in advance, at a rate of 100 microliters per well. The plate was incubated for further three days in 5% CO2-95% air at 37° C. Cell growth after incubation was measured by the WST-8 method (H. Tominaga, et al., Anal. Commun., 36, 47-50 (1999)). Here, the WST-8 method refers to a method in which 20 microliters of a WST-8 reagent solution is added to each well, incubation is conducted at 37° C. for 60 minutes, the plate is stirred, and the amount of formazan produced is measured by a […] method to determine the inhibitory rate of the drug.
In general terms: Tetrazolium assays rely on reduction of a dye to a coloured formazan, in cell work by metabolically active cells.

The test system is the same in experiment [3]. Briefly: Effect by combined use of drugs in cells (docetaxel), WST-8 method. To be noted: HeLa S3, three days; for inhibition at 0.1 µM / inhibition at 0.3 µM / inhibition at 1 µM: Homo sapiens, read-out: Cell growth inhibitory effect by sole administration of the compound of Example (%); for inhibition at 0.1 µM: compound 0.1 μM alone; for inhibition at 0.3 µM: compound 0.3 μM alone; for inhibition at 1 µM: compound 1.0 μM alone. Format: cell-based. Here is the method: Fetal calf serum (FCS) was purchased from Moregate Biotech, DMEM medium from Invitrogen Corp., docetaxel (tradename: Taxere) from Sigma-Aldrich, Inc., and WST-8 from Kishida Chemical Co., Ltd.
as §1
Cells were suspended in a DMEM medium containing 10% FCS, and the cell suspension was dispensed to two 96-well plastic plates at a rate of 750 cells/100 microliters per well. The plates were incubated overnight in 5% CO2-95% air at 37° C. A drug was subjected to graded dilution in dimethylsulfoxide and further diluted with DMSO or with a DMEM medium containing 10% FCS and also containing 0.6 nM docetaxel. Then, the dilutions were each dispensed to one of the plates on which cells had been disseminated in advance, at a rate of 100 microliters per well. The final concentration of docetaxel at this stage was 0.3 nM. Also, the concentrations in the case of sole administration of the compound according to the invention were 0.003, 0.01, 0.03, 0.1, 0.3, 1, 3 and 10 μM. The plates were incubated for further three days in 5% CO2-95% air at 37° C. Cell growth after incubation was measured by the WST-8 method (H. Tominaga, et al., Anal. Commun., 36, 47-50 (1999)). Here, the WST-8 method refers to a method in which 20 microliters of a WST-8 reagent solution is added to each well, incubation is conducted at 37° C. for 60 minutes, the plate is stirred, and the amount of formazan produced is measured by a colorimetric method to determine the inhibitory rate of the drug. The growth inhibitory effects of docetaxel and of the compound according to the invention were determined, with the value obtained in sole treatment of DMSO being defined as 0%.

[4] abbreviates: compound 0.1 μM + docetaxel 0.3 nM.
Where [5] appears, read: compound 0.3 μM + docetaxel 0.3 nM.
Setting [6] is: compound 1.0 μM + docetaxel 0.3 nM.

As usually defined, the IC50 is the point on the concentration scale where inhibition reaches its midpoint.

Structures can show the parent of a compound that is named as a salt. Where two headings read alike, the source gives them in different places.

Consider `O=c1[nH]nc([C@]2(Cc3cccc(Nc4cc[nH]n4)n3)CC[C@@H](Sc3cccc(Cl)c3Cl)CC2)o1` [Example 34, 5-(trans-4-((2,3-dichlorophenyl)thio)-1-((6-(1H-pyrazol-3-ylamino)pyridin-2-yl)methyl)cyclohexyl)-1,3,4-oxadiazol-2(3H)-one trifluoroacetate], for which the concentration for half-maximal inhibition (IC50) is 0.47 nM at human Aurora A, 690 nM in experiment [1] and 870 nM in experiment [2]. The inhibition at 0.1 µM in experiment [3] (HeLa S3, 72 h) turned out to be 3.9%. For the same compound, the inhibition at 0.3 µM in experiment [3] (HeLa S3, 72 h) is 40.8%. In addition, the “Cell growth inhibitory effect by combined administration of docetaxel and the compound of Example (%)” value (“Cell growth inhibitory effect … (%)” for short) is 83.8% in experiment [3] (setting [4]) and 93.9% in experiment [3] (setting [5]).

Take `NC(=O)[C@]1(Cc2cccc(Nc3cc[nH]n3)n2)CC[C@@H](Oc2cccc(Cl)c2F)CC1` [Example 11, trans-4-(3-chloro-2-fluorophenoxy)-1-((6-(1H-pyrazol-3-ylamino)pyridin-2-yl)methyl)cyclohexanecarboxamide]: the 50% inhibitory concentration (IC50) against human Aurora A stood at 1.8 nM; in experiment [1], 750 nM; in experiment [2] it was 2800 nM. Moreover, in experiment [3] (HeLa S3, 72 h), the inhibition at 0.3 µM was 15.1%. In addition, the inhibition at 1 µM in experiment [3] (HeLa S3, 72 h) turned out to be 25.4%. Further, the “Cell growth inhibitory effect … (%)” value is reported as 72.1% in experiment [3] (setting [5]) and 84.5% in experiment [3] (setting [6]).

On to `O=C(O)[C@]1(Cc2cccc(Nc3nccs3)n2)CC[C@@H](S(=O)(=O)c2cccc(Cl)c2Cl)CC1` [Example 32, trans-4-((2,3-dichlorophenyl)sulfonyl)-1-((6-(1,3-thiazol-2-ylamino)pyridin-2-yl)methyl)cyclohexanecarboxylic acid trifluoroacetate], for which the IC50 is 0.15 nM against human Aurora A, 70 nM in experiment [1] and 590 nM in experiment [2]. Further, the inhibition at 0.1 µM in experiment [3] (HeLa S3, 72 h) was 6.3%. In addition, the inhibition at 0.3 µM in experiment [3] (HeLa S3, 72 h) was found to be 40.8%. Also, the “Cell growth inhibitory effect … (%)” value is given as 88.6% in experiment [3] (setting [4]) and 94.0% in experiment [3] (setting [5]).

As for `Cn1nc([C@]2(Cc3cccc(Nc4cc[nH]n4)n3)CC[C@@H](Oc3cccc(Cl)c3F)CC2)oc1=O` [Example 26, 5-(trans-4-(3-chloro-2-fluorophenoxy)-1-((6-(1H-pyrazol-3-ylamino)pyridin-2-yl)methyl)cyclohexyl)-3-methyl-1,3,4-oxadiazol-2(3H)-one], the IC50 is 1.4 nM on human Aurora A, 800 nM in experiment [1] and 3300 nM in experiment [2]. Besides, the inhibition at 0.3 µM in experiment [3] (HeLa S3, 72 h) came out at 11.8%. Moreover, the inhibition at 1 µM in experiment [3] (HeLa S3, 72 h) worked out at 18.2%. Also, the “Cell growth inhibitory effect … (%)” value amounted to 67.3% in experiment [3] (setting [5]) and 88.5% in experiment [3] (setting [6]).

Turning to `Cl.O=C(O)[C@]1(Cc2cccc(Nc3nccs3)n2)CC[C@@H](Oc2cccc(F)c2F)CC1` [Example 3, trans-4-(2,3-difluorophenoxy)-1-((6-(1,3-thiazol-2-ylamino)pyridin-2-yl)methyl)cyclohexanecarboxylic acid hydrochloride], the IC50 against human Aurora A worked out at 0.12 nM; in experiment [1] it was 59 nM; in experiment [2] it was 3950 nM. In addition, the inhibition at 0.3 µM in experiment [3] (HeLa S3, 72 h) was found to be 5.4%. Besides, the inhibition at 1 µM in experiment [3] (HeLa S3, 72 h) worked out at 26.9%. In addition, the “Cell growth inhibitory effect … (%)” value in experiment [3] (setting [5]) is 74.1%; in experiment [3] (setting [6]), 90.4%.

In the case of `Cl.O=C(O)[C@]1(Cc2cccc(Nc3nccs3)n2)CC[C@@H](Oc2cccc(Cl)c2F)CC1` [Example 1, trans-4-(3-chloro-2-fluorophenoxy)-1-((6-(1,3-thiazol-2-ylamino)pyridin-2-yl)methyl)cyclohexanecarboxylic acid hydrochloride], the IC50 in experiment [2] came to 1970 nM. The inhibition at 0.3 µM in experiment [3] (72 h) is 4.4%. The “Cell growth inhibitory effect … (%)” value in experiment [3] (setting [5]) is recorded as 84.7%.
